Values of other authors as cited in patent publication US20230364078A1, “METHOD OF PREPARING NANOPARTICLES COMPRISING POORLY WATER SOLUBLE DRUGS FOR TREATING HEPATITIS” (priority 2022, published 2023).

Legend:
[1] = non-nanosized drug
[2] = solvent ethanol
[3] = parameters: key: Class 1 has high solubility and permeability; Class 2 has low solubility but good permeability; Class 3 has high solubility but low permeability; Class 4 has low solubility and permeability; details: water solubility and intestinal permeability

COC(=O)N[C@H](C(=O)N1CCC[C@H]1c1ncc(-c2ccc(-c3ccc(-c4cnc([C@@H]5CCCN5C(=O)[C@@H](NC(=O)OC)C(C)C)[nH]4)cc3)cc2)[nH]1)C(C)C [Formula 1, Daclatasvir]
solubility in water [1]: insoluble in water
solubility to ethanol [2]: 148 mg/mL
BCS class [3]: 2

C=C[C@@H]1C[C@]1(NC(=O)[C@@H]1C[C@@H]2CN1C(=O)[C@H](C(C)(C)C)NC(=O)O[C@@H]1C[C@H]1CCCCCc1nc3ccc(OC)cc3nc1O2)C(=O)NS(=O)(=O)C1CC1 [Formula 2, Grazoprevir]
solubility in water [1]: very little soluble in water
solubility to ethanol [2]: 15 mg/mL
BCS class [3]: 2

C=C[C@@H]1C[C@]1(NC(=O)[C@@H]1C[C@@H](Oc2ncc(OC)c3ccc(Cl)cc23)CN1C(=O)[C@@H](NC(=O)OC(C)(C)C)C(C)(C)C)C(=O)NS(=O)(=O)C1CC1 [Formula 3, Asunaprevir]
solubility in water [1]: very little soluble in water
solubility to ethanol [2]: 100 mg/mL
BCS class [3]: 2

COC[C@H]1C[C@@H](c2nc(-c3ccc4c(c3)COc3cc5c(ccc6nc([C@@H]7CC[C@H](C)N7C(=O)[C@@H](NC(=O)OC)C(C)C)[nH]c65)cc3-4)c[nH]2)N(C(=O)[C@H](NC(=O)OC)c2ccccc2)C1 [Formula 4, Velpatasvir]
solubility to ethanol [2]: 30 mg/mL
BCS class [3]: 4
